Assay results published in patent publication US20210353579A1, “HIGH PENETRATION COMPOSITIONS AND USES THEREOF” (Techfields Pharma Co., Ltd., priority 2006, published 2021).
Where two headings read alike, the source gives them in different places. Values belong to the molecule of their own block, whether it stands above or below them.

Legend:
Chinese white rabbits [1] = assay: Wound healing, scar area; assay type: in vivo, rabbit; conditions: 5% aqueous solution applied to the nearby area of wounds, vs control rabbits
Description: 25 Chinese white rabbits were divided into 5 groups and hairs on the back of rabbits were removed (5×5 cm^2).

[2] = Plasma levels after transdermal administration to hairless mice; assay type: in vivo
Description: Tested compounds (20% solution or suspension in 1 mL isopropanol) are administered transdermally to the skin of intact hairless mice. The plasma levels of the parent compounds are determined by HPLC.

mice = assay: Analgesic activity, acetic acid writhing; assay type: in vivo
Description: The prodrug compounds are administered either transdermally or orally. The parent compounds are administered orally. The number of writhing that occurred when mice are administered the acetic acid solution are counted, and the rate of inhibition based on the control group which was not pretreated with any test compounds is calculated. […] The A group is the control group.

rats = assay: Antipyretic activity, E. coli suspension as pyrogen; assay type: in vivo; conditions: in °C (unit assumed)
Description: Rats are administered with sterilized E. coli suspension as a pyrogen. Each group of rats are administered with a prodrug compounds or parent compounds at a dosage specified below. The prodrug compounds are administered either orally or transdermally. The parent compounds are administered orally.

human skin tissue [3] = assay: In vitro penetration rate through human skin, modified Franz cells; conditions: Franz cell; for In vitro penetration rate (apparent flux), prodrug compounds: 20% solution in 0.2 M phosphate buffer pH 7.4, human skin
[4] = Solubility in water / aqueous solubility of HPPs and parent drugs
Chinese white rabbits [5] = assay: Malassezia-induced lesions similar to psoriasis; assay type: in vivo, rabbit; conditions: 5% aqueous solution twice per day, 10 days after application
Description: Heavy suspensions of Malassezia [Rosenberg, E. W., et al., Mycopathologia, 72, 147-154 (1980)] were applied to the shaved skin on the backs of the Chinese white rabbits (n=4×6) twice (at 7 am and 7 pm) per day for 2 weeks, lesions similar to psoriasis resulted.

human skin tissue [6] = conditions: pH 7.4
[7] = transdermal, 20% in 1 mL isopropanol, hairless mice
[8] = 100 mg/kg transdermally, 60 minutes before acetic acid
[9] = 100 mg/kg transdermally, 30 min before acetic acid
[10] = 10 mg/kg orally, 30 min before acetic acid
[11] = 10 mg/kg transdermally, 30 min before acetic acid
[12] = 20 mg/kg orally, 30 min before acetic acid
[13] = 20 mg/kg transdermally, 30 min before acetic acid
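Wherever LD50 of HPP is given: acute toxicity in rats expressed as LD50, determined for both prodrugs and their parent compounds.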

SMILES: CC(C)Cc1ccc(C(C)C(=O)OCC2CCCNC2)cc1.Cl (stereo not drawn) [3-piperidinemethyl 2-(ρ-isobutylphenyl) propionate.HCl]
average scar area (Chinese white rabbits [1]): only a third of that of the control rabbits

t, time to peak plasma level after parent compound ([2]; parent compound administered (time when taken orally)): 1 to 2 h
Peak plasma concentration after parent compound ([2]; parent compound administered, hairless mice): 1 mg/L
In vitro penetration rate (apparent flux), parent compounds (human skin tissue [3]; 20% suspension in 0.2 M phosphate buffer pH 7.4, human skin, detection limit 1): <1 μg/cm^2/h
SMILES: CC(C(=O)O)c1cccc(C(=O)c2ccccc2)c1 (stereo not drawn) [Ketoprofen, 2-(3-benzoylphenyl) propionic acid, reference compound]
No. of Writhing (mice; 50 mg/kg orally, 30 min before acetic acid): 18.1
inhibition at 50 mg/kg (mice; Mus musculus, po, 50 mg/kg orally, 30 min before acetic acid, read-out: % (rate of writhing inhibition)): 48%
body temperature, t = 0 min (rats; 50 mg/kg orally): 37.25 ± 0.06
body temperature, t = 90 min (rats; 50 mg/kg orally): 36.81 ± 0.05
body temperature, t = 180 min (rats; 50 mg/kg orally): 36.82 ± 0.08
body temperature, t = 270 min (rats; 50 mg/kg orally): 36.78 ± 0.07

SMILES: CCc1cccc2c3c([nH]c12)C(CC)(CC(=O)OCCN(CC)CC)OCC3.Cl (stereo not drawn) [diethylaminoethyl 1,8-diethyl-1,3,4,9-tetrahydropyrano-[3,4-b]indole-1-acetate.HCl]
average scar area (Chinese white rabbits [1]): only a third of that of the control rabbits

SMILES: CCN(CC)CCOC(=O)COC(=O)Cc1c(C)n(C(=O)c2ccc(Cl)cc2)c2ccc(OC)cc12.Cl [diethylaminoethyl 1-(4-chlorobenzoyl-5-methoxy-2-methyl-1H-indole-3-acetoxyacetate.HCl]
average scar area (Chinese white rabbits [1]): only a third of that of the control rabbits

SMILES: CCN(CC)CCOC(=O)Cc1ccc(C(=O)c2ccc(C)cc2)n1C.Cl [diethylaminoethyl 1-methyl-5-(4-methylbenzoyl)-1H-pyrrole-2-acetate.HCl]
average scar area (Chinese white rabbits [1]): only a third of that of the control rabbits

SMILES: CC(=O)O.CCN(CC)CCOC(=O)c1ccccc1Nc1cccc(C(F)(F)F)c1 [diethylaminoethyl 2-[[(3-(trifluoromethyl)phenyl)amino]benzoate.AcOH]
Peak plasma concentration of parent compound after prodrug compound [2, 7]: 20 mg/L
t, time to peak plasma level of parent compound after prodrug compound [2, 7]: 50 min
% (rate of writhing inhibition) (mice; [8]): 54%
No. of Writhing (mice; [8]): 16.1
body temperature, t = 0 min (rats; 100 mg/kg transdermally): 37.27 ± 0.06
body temperature, t = 90 min (rats; 100 mg/kg transdermally): 36.76 ± 0.05
body temperature, t = 180 min (rats; 100 mg/kg transdermally): 36.65 ± 0.08
body temperature, t = 270 min (rats; 100 mg/kg transdermally): 36.49 ± 0.07
LD50 of HPP (rat; rats): 800 mg/kg
Solubility of HPP ([4]; medium not given): >400 mg/mL
In vitro penetration rate (apparent flux), prodrug compounds (human skin tissue [3]): 2200 μg/cm^2/h

SMILES: CC(=O)O.CCN(CC)CCOC(=O)Cc1cccc(C(=O)c2ccc(Br)cc2)c1N [diethylaminoethyl 2-amino-3-(4-bromo-benzoyl)benzeneacetate.AcOH]
Peak plasma concentration of parent compound after prodrug compound ([2]; mouse, in vivo): 20 mg/L
t, time to peak plasma level of parent compound after prodrug compound ([2]; mouse, in vivo): 50 min
% (rate of writhing inhibition) (mice; [9]): 62%
No. of Writhing (mice; [9]): 13.2
body temperature, t = 0 min (rats; 100 mg/kg transdermally): 37.25 ± 0.06
body temperature, t = 90 min (rats; 100 mg/kg transdermally): 36.71 ± 0.05
body temperature, t = 180 min (rats; 100 mg/kg transdermally): 36.65 ± 0.08
body temperature, t = 270 min (rats; 100 mg/kg transdermally): 36.64 ± 0.07
lesions similar to psoriasis (Chinese white rabbits [5]): the lesions were resolved
In vitro penetration rate (apparent flux), prodrug compounds (human skin tissue [6]): 1100 μg/cm^2/h
LD50 of HPP (rat; rats): 1600 mg/kg

SMILES: CCN(CC)CCOC(=O)Cc1cccc(C(=O)c2ccc(Br)cc2)c1N.Cl [diethylaminoethyl 2-amino-3-(4-bromo-benzoyl)benzeneacetate.HCl]
average scar area (Chinese white rabbits [1]): only a third of that of the control rabbits

SMILES: CC(=O)O.CCN(CC)CCOC(=O)Cc1ccccc1Nc1c(Cl)cccc1Cl [diethylaminoethyl 2[(2,6-dichlorophenyl)amino]benzene acetate.AcOH]
Peak plasma concentration of parent compound after prodrug compound [2, 7]: 2100 mg/L
t, time to peak plasma level of parent compound after prodrug compound [2, 7]: 40 min
% (rate of writhing inhibition) (mice; [10]): 64.6%
No. of Writhing (mice; [10]): 12.1
% (rate of writhing inhibition) (mice; [11]): 69.9%
No. of Writhing (mice; [11]): 10.3
% (rate of writhing inhibition) (mice; [12]): 73.1%
No. of Writhing (mice; [12]): 9.2
% (rate of writhing inhibition) (mice; [13]): 74.3%
No. of Writhing (mice; [13]): 8.8
body temperature, t = 0 min (rats; 10 mg/kg orally): 37.52 ± 0.07
body temperature, t = 90 min (rats; 10 mg/kg orally): 36.50 ± 0.06
body temperature, t = 180 min (rats; 10 mg/kg orally): 36.60 ± 0.05
body temperature, t = 270 min (rats; 10 mg/kg orally): 36.55 ± 0.08
body temperature, t = 0 min (rats; 10 mg/kg transdermally): 37.58 ± 0.06
body temperature, t = 90 min (rats; 10 mg/kg transdermally): 36.30 ± 0.06
body temperature, t = 180 min (rats; 10 mg/kg transdermally): 36.35 ± 0.08
body temperature, t = 270 min (rats; 10 mg/kg transdermally): 36.31 ± 0.07
body temperature, t = 0 min (rats; 20 mg/kg orally): 37.54 ± 0.08
body temperature, t = 90 min (rats; 20 mg/kg orally): 36.30 ± 0.05
body temperature, t = 180 min (rats; 20 mg/kg orally): 36.35 ± 0.07
body temperature, t = 270 min (rats; 20 mg/kg orally): 36.38 ± 0.08
body temperature, t = 0 min (rats; 20 mg/kg transdermally): 37.59 ± 0.05
body temperature, t = 90 min (rats; 20 mg/kg transdermally): 36.25 ± 0.05
body temperature, t = 180 min (rats; 20 mg/kg transdermally): 36.30 ± 0.07
body temperature, t = 270 min (rats; 20 mg/kg transdermally): 36.20 ± 0.05
LD50 of HPP (rat; rat, in vivo): 800 mg/kg
Solubility of HPP ([4]; in water): >300 mg/mL
Solubility in water ([4]; product as prepared in Example 1): 400 mg/mL
In vitro penetration rate (apparent flux), prodrug compounds (human skin tissue [3]): 5000 μg/cm^2/h

SMILES: CCN(CC)CCOC(=O)Cc1cn(-c2ccccc2)nc1-c1ccc(Cl)cc1.Cl [diethylaminoethyl 3-(4-chlorophenyl)-1-phenyl-1H-pyrazole-4-acetate.HCl]
average scar area (Chinese white rabbits [1]): only a third of that of the control rabbits

SMILES: C=CCOc1ccc(CC(=O)OCCN(CC)CC)cc1Cl.CC(=O)O [diethylaminoethyl 3-chloro-4-(2-propenyloxy)benzeneacetate.AcOH]
Peak plasma concentration of parent compound after prodrug compound ([2]; mouse, in vivo): 20 mg/L
t, time to peak plasma level of parent compound after prodrug compound ([2]; mouse, in vivo): 50 min
% (rate of writhing inhibition) (mice; [9]): 55%
No. of Writhing (mice; [9]): 15.7
body temperature, t = 0 min (rats; 100 mg/kg transdermally): 37.23 ± 0.07
body temperature, t = 90 min (rats; 100 mg/kg transdermally): 36.80 ± 0.06
body temperature, t = 180 min (rats; 100 mg/kg transdermally): 36.70 ± 0.05
body temperature, t = 270 min (rats; 100 mg/kg transdermally): 36.67 ± 0.08
lesions similar to psoriasis (Chinese white rabbits [5]): the lesions were resolved
In vitro penetration rate (apparent flux), prodrug compounds (human skin tissue [6]): 1000 μg/cm^2/h
LD50 of HPP (rat; rats): 3000 mg/kg

SMILES: C=CCOc1ccc(CC(=O)OCCN(CC)CC)cc1Cl.Cl [diethylaminoethyl 3-chloro-4-(2-propenyloxy)benzeneacetate.HCl]
average scar area (Chinese white rabbits [1]): only a third of that of the control rabbits

SMILES: CC(=O)O.CCN(CC)CCOC(=O)Cc1sc(-c2ccccc2)nc1-c1ccc(Cl)cc1 [diethylaminoethyl 4-(4-chlorophenyl)-2-phenyl-5-thiazoleacetate.AcOH]
Peak plasma concentration of parent compound after prodrug compound ([2]; mouse, in vivo): 20 mg/L
t, time to peak plasma level of parent compound after prodrug compound ([2]; mouse, in vivo): 50 min
% (rate of writhing inhibition) (mice; [9]): 54%
No. of Writhing (mice; [9]): 16.1
body temperature, t = 0 min (rats; 100 mg/kg transdermally): 37.23 ± 0.06
body temperature, t = 90 min (rats; 100 mg/kg transdermally): 36.81 ± 0.05
body temperature, t = 180 min (rats; 100 mg/kg transdermally): 36.75 ± 0.08
body temperature, t = 270 min (rats; 100 mg/kg transdermally): 36.71 ± 0.07
lesions similar to psoriasis (Chinese white rabbits [5]): the lesions were resolved
In vitro penetration rate (apparent flux), prodrug compounds (human skin tissue [6]): 1300 μg/cm^2/h
LD50 of HPP (rat; rats): 1200 mg/kg

SMILES: CCN(CC)CCOC(=O)Cc1sc(-c2ccccc2)nc1-c1ccc(Cl)cc1.Cl [diethylaminoethyl 4-(4-chlorophenyl)-2-phenyl-5-thiazoleacetate.HCl]
average scar area (Chinese white rabbits [1]): only a third of that of the control rabbits

SMILES: CCN(CC)CCOC(=O)Cc1cc(C)c(C(=O)c2ccc(Cl)cc2)n1C.Cl [diethylaminoethyl 5-(4-Chlorobenzoyl)-1,4-dimethyl-1H-pyrrole-2-acetate.HCl]
average scar area (Chinese white rabbits [1]): only a third of that of the control rabbits

SMILES: CC(=O)O.CCN(CC)CCOC(=O)C(C)c1c(C)n(C(=O)c2ccc(Cl)cc2)c2ccc(OC)cc12 (stereo not drawn) [diethylaminoethyl α-methyl-(p-chlorobenzoyl)-5-methoxy-2-methylindole 3-acetate.AcOH]
Peak plasma concentration of parent compound after prodrug compound [2, 7]: 2000 mg/L
t, time to peak plasma level of parent compound after prodrug compound [2, 7]: 50 min
% (rate of writhing inhibition) (mice; [9]): 61%
No. of Writhing (mice; [9]): 13.8
body temperature, t = 0 min (rats; 100 mg/kg transdermally): 37.35 ± 0.06
body temperature, t = 90 min (rats; 100 mg/kg transdermally): 36.71 ± 0.05
body temperature, t = 180 min (rats; 100 mg/kg transdermally): 36.60 ± 0.08
body temperature, t = 270 min (rats; 100 mg/kg transdermally): 36.59 ± 0.07
Solubility of HPP ([4]; medium not given): >450 mg/mL
In vitro penetration rate (apparent flux), prodrug compounds (human skin tissue [3]): 4000 μg/cm^2/h
